ChEMBL document CHEMBL1201862, “PubChem BioAssay data set” (2004)
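Dose response: 5 concentrations. Exposure: 48 h. Format: 96-well plates. Endpoint: linear interpolation; highest concentration if not reached. Abbreviation: GI50, concentration required for 50% inhibition of growth.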 The source made the active and inactive calls. Cut-off read from the data, not from the text of the source: active = GI50 up to about 1.1 µM and inactive = higher.

Key:
Assay in all cases: NCI anticancer screen, dose series, 48 h
HOP-92 = test system: HOP-92
OVCAR-3 = test system: OVCAR-3
OVCAR-5 = test system: OVCAR-5
HT-29 = test system: HT-29
PC-3 = test system: PC-3
HCT-15 = test system: HCT-15
SNB-19 = test system: SNB-19
U-251 = test system: U-251
SW-620 = test system: SW-620
COLO 205 = test system: COLO 205
SNB-75 = test system: SNB-75
A498 = test system: A498
SK-MEL-28 = test system: SK-MEL-28
MDA-N = test system: MDA-N
RXF 393 = test system: RXF 393
MDA-MB-435 = test system: MDA-MB-435
NCI-H23 = test system: NCI-H23
SF-268 = test system: SF-268
EKVX = test system: EKVX
SK-MEL-5 = test system: SK-MEL-5
MDA-MB-231 = test system: MDA-MB-231
TK-10 = test system: TK-10
OVCAR-8 = test system: OVCAR-8
A549 = test system: A549
CAKI-1 = test system: CAKI-1
OVCAR-4 = test system: OVCAR-4
DU-145 = test system: DU-145
SN12C = test system: SN12C
SF-539 = test system: SF-539
ACHN = test system: ACHN
IGROV-1 = test system: IGROV-1
KM12 = test system: KM12
M14 = test system: M14
NCI-H226 = test system: NCI-H226
SF-295 = test system: SF-295
HCT-116 = test system: HCT-116
NCI/ADR-RES = test system: NCI/ADR-RES
UO-31 = test system: UO-31
MCF7 = test system: MCF7
UACC-257 = test system: UACC-257
Malme-3M = test system: Malme-3M
HL-60 = test system: HL-60
786-0 = test system: 786-0
NCI-H460 = test system: NCI-H460
MOLT-4 = test system: MOLT-4
CCRF-CEM = test system: CCRF-CEM
RPMI-8226 = test system: RPMI-8226
Hs-578T = test system: Hs-578T
K562 = test system: K562
SK-OV-3 = test system: SK-OV-3
SK-MEL-2 = test system: SK-MEL-2
LOX IMVI = test system: LOX IMVI
NCI-H522 = test system: NCI-H522
HOP-62 = test system: HOP-62
UACC-62 = test system: UACC-62
SR = test system: SR
HCC 2998 = test system: HCC 2998

CC(=O)N1C(=O)CC2(N=C(C)CC2=O)c2ccccc21 (stereo unspecified)
GI50 (HOP-92): > 10 µM (inactive)
GI50 (OVCAR-3): > 10 µM (inactive)
GI50 (OVCAR-5): > 10 µM (inactive)
GI50 (HT-29): > 10 µM (inactive)
GI50 (PC-3): > 10 µM (inactive)
GI50 (HCT-15): > 10 µM
GI50 (SNB-19): > 10 µM (inactive)
GI50 (U-251): > 10 µM (inactive)
GI50 (SW-620): > 10 µM (inactive)
GI50 (COLO 205): > 10 µM (inactive)
GI50 (SNB-75): > 10 µM (inactive)
GI50 (A498): > 10 µM (inactive)
GI50 (SK-MEL-28): > 10 µM (inactive)
GI50 (MDA-N): > 10 µM (inactive)
GI50 (RXF 393): > 10 µM (inactive)
GI50 (MDA-MB-435): > 10 µM (inactive)
GI50 (NCI-H23): > 10 µM (inactive)
GI50 (SF-268): > 10 µM (inactive)
GI50 (EKVX): > 10 µM (inactive)
GI50 (SK-MEL-5): > 10 µM (inactive)
GI50 (MDA-MB-231): > 10 µM (inactive)
GI50 (TK-10): > 10 µM (inactive)
GI50 (OVCAR-8): > 10 µM (inactive)
GI50 (A549): > 10 µM (inactive)
GI50 (CAKI-1): > 10 µM (inactive)
GI50 (OVCAR-4): > 10 µM (inactive)
GI50 (DU-145): > 10 µM (inactive)
GI50 (SN12C): > 10 µM (inactive)
GI50 (SF-539): 0.0132 µM (active)
GI50 (ACHN): > 10 µM (inactive)
GI50 (IGROV-1): > 10 µM (inactive)
GI50 (KM12): > 10 µM (inactive)
GI50 (M14): > 10 µM (inactive)
GI50 (NCI-H226): > 10 µM (inactive)
GI50 (SF-295): > 10 µM (inactive)
GI50 (HCT-116): > 10 µM (inactive)
GI50 (NCI/ADR-RES): > 10 µM (inactive)
GI50 (UO-31): 1.49 µM (inactive)

[O-][N+]1=NC(c2ccccc2)=C1c1ccccc1
GI50 (HOP-92): > 50 µM (inactive)
GI50 (OVCAR-3): > 50 µM (inactive)
GI50 (OVCAR-5): > 50 µM (inactive)
GI50 (MCF7): > 50 µM (inactive)
GI50 (UACC-257): > 50 µM (inactive)
GI50 (HT-29): > 50 µM (inactive)
GI50 (PC-3): > 50 µM (inactive)
GI50 (Malme-3M): > 50 µM (inactive)
GI50 (HL-60): 11.4 µM (inactive)
GI50 (786-0): > 50 µM (inactive)
GI50 (HCT-15): > 50 µM
GI50 (SNB-19): > 50 µM (inactive)
GI50 (U-251): > 50 µM (inactive)
GI50 (NCI-H460): > 50 µM (inactive)
GI50 (SW-620): > 50 µM (inactive)
GI50 (COLO 205): > 50 µM (inactive)
GI50 (MOLT-4): > 50 µM (inactive)
GI50 (SNB-75): 10.8 µM (inactive)
GI50 (A498): > 50 µM (inactive)
GI50 (CCRF-CEM): > 50 µM (inactive)
GI50 (SK-MEL-28): > 50 µM (inactive)
GI50 (RPMI-8226): > 50 µM (inactive)
GI50 (MDA-N): > 50 µM (inactive)
GI50 (RXF 393): > 50 µM (inactive)
GI50 (MDA-MB-435): > 50 µM (inactive)
GI50 (Hs-578T): > 50 µM (inactive)
GI50 (K562): > 50 µM (inactive)
GI50 (NCI-H23): > 50 µM (inactive)
GI50 (SF-268): > 50 µM (inactive)
GI50 (EKVX): > 50 µM (inactive)
GI50 (SK-MEL-5): > 50 µM (inactive)
GI50 (SK-OV-3): > 50 µM (inactive)
GI50 (MDA-MB-231): > 50 µM (inactive)
GI50 (TK-10): > 50 µM (inactive)
GI50 (OVCAR-8): > 50 µM (inactive)
GI50 (A549): > 50 µM (inactive)
GI50 (CAKI-1): > 50 µM (inactive)
GI50 (OVCAR-4): > 50 µM (inactive)
GI50 (SK-MEL-2): > 50 µM (inactive)
GI50 (DU-145): > 50 µM (inactive)
GI50 (SN12C): > 50 µM (inactive)
GI50 (SF-539): > 50 µM (inactive)
GI50 (ACHN): > 50 µM (inactive)
GI50 (IGROV-1): > 50 µM (inactive)
GI50 (LOX IMVI): > 50 µM (inactive)
GI50 (KM12): > 50 µM (inactive)
GI50 (NCI-H522): > 50 µM (inactive)
GI50 (HOP-62): > 50 µM (inactive)
GI50 (M14): > 50 µM (inactive)
GI50 (NCI-H226): > 50 µM (inactive)
GI50 (UACC-62): > 50 µM (inactive)
GI50 (SF-295): > 50 µM (inactive)
GI50 (HCT-116): > 50 µM (inactive)
GI50 (NCI/ADR-RES): > 50 µM (inactive)
GI50 (UO-31): > 50 µM (inactive)

O=C(N/N=C/c1cc(Cl)cc(Cl)c1O)c1ccccc1O
GI50 (OVCAR-3): 0.282 µM (active)
GI50 (OVCAR-5): 2.53 µM (inactive)
GI50 (UACC-257): 1.63 µM (inactive)
GI50 (HT-29): 3.49 µM (inactive)
GI50 (SR): 0.281 µM (active)
GI50 (HL-60): 0.175 µM (active)
GI50 (HCT-15): 0.395 µM
GI50 (SNB-19): 1.91 µM (inactive)
GI50 (U-251): 0.445 µM (active)
GI50 (NCI-H460): 0.537 µM (active)
GI50 (SW-620): 0.735 µM (active)
GI50 (SNB-75): 3.05 µM (inactive)
GI50 (SK-MEL-28): 1 µM (active)
GI50 (RXF 393): 1.31 µM (inactive)
GI50 (K562): 0.519 µM (active)
GI50 (SF-268): 0.351 µM (active)
GI50 (SK-MEL-5): 1.28 µM (inactive)
GI50 (SK-OV-3): 0.929 µM (active)
GI50 (TK-10): 3.06 µM (inactive)
GI50 (OVCAR-8): 0.344 µM (active)
GI50 (HCC 2998): 3.18 µM (inactive)
GI50 (CAKI-1): 0.723 µM (active)
GI50 (OVCAR-4): 0.22 µM (active)
GI50 (ACHN): 0.346 µM (active)
GI50 (IGROV-1): 1.69 µM (inactive)
GI50 (LOX IMVI): 0.303 µM (active)
GI50 (NCI-H522): 0.254 µM (active)
GI50 (HOP-62): 1.67 µM (inactive)
GI50 (M14): 0.521 µM (active)
GI50 (NCI-H226): 1.37 µM (inactive)
GI50 (UACC-62): 0.254 µM (active)
GI50 (SF-295): 0.526 µM (active)
GI50 (UO-31): 1.69 µM (inactive)
